Reference: US8536191B2 (priority 2010, dated 2013)
Where two headings read alike, the source gives them in different places.

Assays:
[1] = Physical stability under mechanical stress (compression, grinding, milling), checked by X-ray powder diffraction; assay type: physicochemical
Procedure: The crystalline forms of nalbuphine HCl were identified by their powder X-ray diffraction (PXRD) peaks/pattern. PXRD analyses of crystalline Forms A, B, C, D, F, G, H, I, K and amorphous Form Z were performed using an Inel XRG-3000 diffractometer equipped with a CPS (Curved Position Sensitive) detector with a 2θ range of 120°. Real time data were collected using Cu—Kα radiation starting at approximately 4°2θ at a resolution of 0.03°2θ. The tube voltage and amperage were set to 40 kV and 30 mA, respectively. The monochromator slit was set at 5 mm by 160 μm. […] The sample was prepared for analysis by packing into a thin-walled glass capillary. The capillary was mounted onto a goniometer head that is motorized to permit spinning of the capillary during data acquisition. Instrument calibration was performed using a silicon reference standard.

[2] = Physical stability on drying at 60° C.; settings: dried at 60° C.
[3] = Form conversion upon heating (VT-XRPD); assay type: physicochemical; settings: before melting, HCl
Procedure: Variable-temperature X-ray powder diffraction (VT-XRPD) analysis was performed on a Shimadzu XRD-6000 X-ray powder diffractometer equipped with an Anton Paar HTK 1200 high temperature stage. The sample was packed in a ceramic holder and analyzed from 2.5 to 40°2θ at 3°/min (0.4 sec/0.02° step). The heating rate was 10° C./min. Cooling was done by shutting off the furnace. A silicon standard was analyzed to check the instrument alignment. Temperature calibration was performed using vanillin and sulfapyridine standards. Data were collected and analyzed using XRD-6100/7000 v. 5.0. In house software (Pattern Match, SSCI Inc., An Aptuit Company) was used to generate and edit the peak lists. The value of each peak position represents the value at the apex of the peak. In the tables which follow herein, the PXRD peak lists are presented for each solid form along with the conversion to ‘d’ value (assuming a mean Cu Kα wavelength of 1.5418 Å) and relative peak intensities scaled to 100. The relative intensity (“R.I.”) of each peak is shown, wherein Relative Intensity is the ratio of the height of each peak compared to the highest peak, which is designated as 100%.

With `Cl.Oc1ccc2c3c1O[C@H]1[C@@H](O)CC[C@@]4(O)[C@@H](C2)N(CC2CCC2)CC[C@]314` [Form A] the “form change under mechanical stress” value ([1]; compression or dry grinding) was “converting to Form C”, the “effect of further grinding on crystallinity” value ([1]; further grinding, X-ray powder diffraction) was “some loss of crystallinity and formed partially amorphous material” and the “form change under mechanical stress” value ([1]; wet grinding) was “Form B”. The “form change at extremely high humidity” value (97% RH, hydrochloride) was “Form B (dihydrate)”.
With `Cl.Oc1ccc2c3c1O[C@H]1[C@@H](O)CC[C@@]4(O)[C@@H](C2)N(CC2CCC2)CC[C@]314` [Form B, nalbuphine HCl] the “physical stability when dried” value [2] was “mostly converting to Form C (monohydrate)”, the “temperature of conversion to Form F upon heating” value (“temperature of conversion” for short) [3] was “about 190 °C” and the “physical stability when milled” value ([1]; milled, X-ray powder diffraction) was “physically unstable when milled, losing its crystallinity”.
With `Cl.Oc1ccc2c3c1O[C@H]1[C@@H](O)CC[C@@]4(O)[C@@H](C2)N(CC2CCC2)CC[C@]314` [Form C, nalbuphine HCl] the “temperature of conversion” value [3] was 200 °C and the “form change at extremely high humidity” value (97% RH) was “converts to Form B (dihydrate)”.
With `Cl.Oc1ccc2c3c1O[C@H]1[C@@H](O)CC[C@@]4(O)[C@@H](C2)N(CC2CCC2)CC[C@]314` [Form D, nalbuphine HCl] the “temperature of conversion” value [3] was “about 180 °C”.
For `Cl.Oc1ccc2c3c1O[C@H]1[C@@H](O)CC[C@@]4(O)[C@@H](C2)N(CC2CCC2)CC[C@]314` [Form F, nalbuphine HCl], the “form change at extremely high humidity” value (85% RH) was “converts to Form B (dihydrate)”.
